{"source": "patent US12150920B2", "about": "“Topical pharmaceutical composition in the form of aqueous gel comprising at least amitriptyline” (AlgoTherapeutix, priority 2020, dated 2024)", "assay": "Ex vivo percutaneous absorption of amitriptyline on human skin samples in a Frantz cell", "format": "in vitro ADME", "details": "topical application of compositions A and B", "description": "Comparative ex vivo study of the percutaneous absorption of amitriptyline in a formulation A in the form of an aqueous gel (invention) and a formulation B in the form of cream (comparative). Each of compositions A and B was applied to distinct samples of human skin. For each composition, the experiment was repeated 3 times with 3 skin samples from 3 different donors, giving 9 samples. The skin samples are placed in a Frantz cell and heated to a surface temperature of 32° C.±1° C. Composition A or B is spread homogenously with a spatula onto each skin sample at a rate of 10 mg per cell, corresponding to 5 mg/cm^2 skin. The skin samples are rinsed 16 hours after application. Each skin sample was placed using tweezers onto absorbent paper (dermis side down). The stratum corneum was removed using adhesive strips. After the removal of the stratum corneum the sample was perforated. The epidermis is then separated from the dermis. Each of them is placed in separate vials. Different samples were then extracted.", "data": [{"smiles": "CN(C)CCC=C1c2ccccc2CCc2ccccc21", "note": "[amitriptyline]", "values": [{"measurement": "Systemic passage of amitriptyline", "result": "less than 0.10 % of the administered dose"}]}]}
